Measurements taken from PubChem BioAssay AID1963867 (Molecular Pharmacology Branch, DTP, NCI, 2024).
Where “and” joins values, the source holds several entries; their conditions need not be identical. Equal values may be shown once. Calls of active or inactive are those of the source. How the source made its calls: active means viability on the fitted dose curve at most 10% of control; inactive means the rest.

Tested on: KRAS-mutant PDC tumor spheroid with HUVEC/MSC, viability
Experiment: Anticancer human tumor 327498-153-R-J2-PDC patient-derived uterine carcinosarcoma cell line growth inhibition [KRAS2]
Details: for viability, T/C: stronger effect = lower value
Source text: Multicellular complex tumor spheroid response to RAS pathway inhibitors in combination with a targeted agents in patient-derived cell lines with oncogenic KRAS variants from multiple cancer types
A high-throughput screen of multi-cell type tumor spheroids was designed to identify active combinations of targeted small molecules and KRAS pathway inhibitors. Complex spheroids include a stromal component modeled by human endothelial cells (HUVEC) and fibroblasts modeled by human mesenchymal stem cells (MSCs). The concentration ranges selected for each drug and investigational agent were based upon clinically achievable concentrations if the clinical Cmax of the agent was known.
Compounds. The drugs and investigational agents: BI-3406 (NSC825286), BAY-293 (NSC824723), batoprotafib (TNO155; NSC825523), sotorasib (AMG 510; NSC818433), MRTX1257 (NSC819558), elimusertib (BAY 1895344; NSC800525), molibresib (GSK525762; NSC774829), temuterkib (LY3214996; NSC803410), venetoclax (NSC766270), alisertib (NSC759677), olaparib (NSC753686), talazoparib (NSC767125), erdafitinib (NSC781556), ipatasertib (NSC767898), cabozantinib (NSC761068), nintedanib (NSC756659), abemaciclib (NSC768073), docetaxel (NSC628503), trametinib (NSC758246), and sapanisertib (NSC764658) were obtained from the National Cancer Institute (NCI) Developmental Therapeutics Program Chemical Repository. The FDA-approved anticancer drug set is available from the Developmental Therapeutics Program. […] The stock solutions were prepared in dimethyl sulfoxide (DMSO, Sigma-Aldrich, St. Louis, MO, cat. D2650) at 800-fold the tested concentration and stored at -70 degrees C prior to their use. All drugs and investigational agents were tested over a range starting from a high concentration at or near the clinical Cmax and decreasing in half-log increments. If the clinical Cmax for an agent had not been determined, the highest concentration tested was 10 microM.
Cell Culture. All cells were maintained in an incubator at 37 degrees C and 5% CO2 with 95% humidity. The PDC lines were cultured according to standard operating procedures established by the NCI PDMR (https://pdmr.cancer.gov/sops/default.htm). Briefly, all PDCs were thawed and cultured in Matrigel-coated flasks prepared with a working solution of 1X Ham's F-12 nutrient mix, without supplementation (Invitrogen, Waltham, MA, cat. 11765054), 100 U/mL penicillin-streptomycin (Invitrogen, cat. 15140122), and 2.5% Matrigel (Corning Inc., Corning, NY, cat. 354248) for the first three passages. All PDCs were cultured in complete DMEM/F-12 media containing advanced DMEM/F-12 (Invitrogen, cat. 12634028), 4.9% defined fetal bovine serum, heat inactivated (HyClone Laboratories Inc., Logan, UT, cat. SH30070.03HI), 389 ng/mL hydrocortisone (Sigma-Aldrich, cat. H4001), 9.7 ng/mL human EGF recombinant protein (Invitrogen, cat. PHG0313), 23.4 microg/mL adenine (Sigma-Aldrich, cat. A2786), 97.3 U/mL penicillin-streptomycin (Invitrogen, cat. 15140122), 1.9 mM L-glutamine (Invitrogen, cat. 25030081), and 9.7 microM Y-27632 dihydrochloride (Tocris Bioscience, Bristol, United Kingdom, cat. 1254). The PDCs were cultured in complete DMEM/F12 media without 9.7 microM Y-27632 dihydrochloride for at least two passages prior to the screen. The established cell line HOP-62 was cultured in RPMI 1640 medium, HEPES (Invitrogen, cat. 22400105) with 10% defined fetal bovine serum (HyClone Laboratories Inc., cat. SH30070.03) and 2 mM L-glutamine (Invitrogen, cat. 25030081). The pooled donor HUVEC were cultured in endothelial cell growth medium 2 (PromoCell, Heidelberg, Germany, cat. C-22011) and the hMSC were cultured in mesenchymal stem cell growth medium 2 (PromoCell, cat. C-28009). For all experiments, HUVEC and hMSC were used at passages </=5, while the malignant cell lines were used at passages </=15. […]

[1] = compound alone, run of 07/19/2021
[2] = compound alone, run of 07/26/2021
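Wherever IC50 is given: spheroids exposed to agents for seven days before reading.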
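Wherever viability, T/C is given: spheroids exposed to agents for seven days before reading; 100% = DMSO vehicle wells so lower means fewer viable cells.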

Row | Structure (SMILES) | viability, T/C (compound 0.0001 µM) | viability, T/C (compound 0.000316 µM) | viability, T/C (compound 0.001 µM) | viability, T/C (compound 0.00316 µM) | viability, T/C (compound 0.01 µM) | viability, T/C (compound 0.0316 µM) | IC50 (curve of compound) | viability, T/C (compound 0.1 µM) | viability, T/C (compound 0.316 µM) | viability, T/C (compound 1 µM) | viability, T/C (compound 3.16 µM) | viability, T/C (compound 10 µM) | IC50 [1] | IC50 [2] | outcome (compound 0.316 µM) | IC50 (compound alone, run of 07/12/2021)
1 | CC(=O)Nc1cccc(-n2c(=O)n(C3CC3)c(=O)c3c(Nc4ccc(I)cc4F)n(C)c(=O)c(C)c32)c1 | 97.2% [middle of 5 runs] | 92.1% [middle of 5 runs] | 75.5% [middle of 5 runs] | 63.5% [middle of 5 runs] | 56.3% [middle of 5 runs] | 36.9% [middle of 5 runs] | 11.7 nM [middle of 5 runs] | – | – | – | – | – | – | – | – | –
2 | CC(=O)OC12COC1CC(O)C1(C)C(=O)C(O)C3=C(C)C(OC(=O)C(O)C(NC(=O)OC(C)(C)C)c4ccccc4)CC(O)(C(OC(=O)c4ccccc4)C21)C3(C)C (stereo unspecified) | – | – | – | – | 8.03% [middle of 5 runs] | 6.44% [middle of 5 runs] | < 0.01 µM | 6.83% [middle of 5 runs] | 7.35% [middle of 5 runs] | 10.6% [middle of 5 runs] | 12.8% [middle of 5 runs] | – | – | – | – | –
3 | CC(C)NCC(C(=O)N1CCN(c2ncnc3c2C(C)CC3O)CC1)c1ccc(Cl)cc1 (stereo unspecified) | – | – | – | – | – | 97.8% [middle of 5 runs] | 982 nM [middle of 5 runs] | 77.2% [middle of 5 runs] | 63.1% [middle of 5 runs] | 48.3% [middle of 5 runs] | 37.9% [middle of 5 runs] | 25.4% [middle of 5 runs] | – | – | – | –
4 | CC(C)n1nc(-c2ccc3oc(N)nc3c2)c2c(N)ncnc21 | – | 99.8% [middle of 5 runs] | 92.1% [middle of 5 runs] | 77.7% [middle of 5 runs] | 49.9% [middle of 5 runs] | 16% [middle of 5 runs] | 9.11 nM [middle of 5 runs] | 9.59% [middle of 5 runs] | – | – | – | – | – | – | – | –
5 | CC1(C)CCC(CN2CCN(c3ccc(C(=O)NS(=O)(=O)c4ccc(NCC5CCOCC5)c([N+](=O)[O-])c4)c(Oc4cnc5[nH]ccc5c4)c3)CC2)=C(c2ccc(Cl)cc2)C1 | – | – | – | – | – | 101% [middle of 5 runs] | 4.81 µM [middle of 5 runs] | 98.9% [middle of 5 runs] | 99.3% [middle of 5 runs] | 97.8% [middle of 5 runs] | 74.3% [middle of 5 runs] | 15.3% [middle of 5 runs] | – | – | – | –
6 | CC1COCCN1c1cc(-c2ccnn2C)c2ccnc(-c3ccn[nH]3)c2n1 (stereo unspecified) | – | – | – | – | – | – | – | 16.4% [middle of 5 runs] | 6.37% [middle of 5 runs] | 5.03% [middle of 5 runs] | 4.84% [middle of 5 runs] | – | – | – | – | –
7 | CC1OCC2(CCN(c3cnc(Sc4ccnc(N)c4Cl)c(N)n3)CC2)C1N (stereo unspecified) | – | – | – | – | – | 87.3% and 88.9% and 86.3% | 1.05 µM [middle of 5 runs] | 75.4% [middle of 19 runs] | 59.2% [middle of 19 runs] | – | – | 31.2% [middle of 19 runs] | 544 nM [middle of 5 runs] | 499 nM [middle of 6 runs] | – | –
8 | CCN1CCN(Cc2ccc(Nc3ncc(F)c(-c4cc(F)c5nc(C)n(C(C)C)c5c4)n3)nc2)CC1 | – | – | – | 88.7% [middle of 5 runs] | 81.7% [middle of 5 runs] | 65.9% [middle of 5 runs] | > 1 µM | 61% [middle of 5 runs] | 59.6% [middle of 5 runs] | 58.9% [middle of 5 runs] | – | – | – | – | – | –
9 | CCNC(=O)CC1N=C(c2ccc(Cl)cc2)c2cc(OC)ccc2-n2c(C)nnc21 (stereo unspecified) | – | – | – | – | – | 102% [middle of 5 runs] | – | 95.9% [middle of 5 runs] | 77.6% [middle of 5 runs] | 64.8% [middle of 5 runs] | – | – | – | – | – | –
10 | CN(C)C/C=C/C(=O)Nc1cc2c(Nc3ccc(F)c(Cl)c3)ncnc2cc1O[C@H]1CCOC1 | – | 99.1% [middle of 5 runs] | 97% [middle of 5 runs] | 95.1% [middle of 5 runs] | 104% [middle of 5 runs] | 100% [middle of 5 runs] | > 0.1 µM | 90.8% [middle of 5 runs] | – | – | – | – | – | – | – | –
11 | CNCc1ccccc1-c1csc(C(C)Nc2nc(C)nc3cc(OC)c(OC)cc23)c1 (stereo unspecified) | – | – | – | – | – | – | – | 85.7% [middle of 17 runs] | 77.5% [middle of 17 runs] | – | – | 1.07% [middle of 17 runs] | 1.43 µM [middle of 5 runs] | 1.48 µM [middle of 5 runs] | – | –
12 | COC(=O)c1ccc2c(C(=Nc3ccc(N(C)C(=O)CN4CCN(C)CC4)cc3)c3ccccc3)c(O)[nH]c2c1 | – | – | – | – | – | 89.5% [middle of 5 runs] | – | 94.6% [middle of 5 runs] | 84.9% [middle of 5 runs] | – | – | – | – | – | – | –
13 | COc1cc(Nc2ncc3c(n2)-c2ccc(Cl)cc2C(c2c(F)cccc2OC)=NC3)ccc1C(=O)O | – | – | – | – | – | 19.4% [middle of 5 runs] | < 0.0316 µM | 13.1% [middle of 5 runs] | 11.2% [middle of 5 runs] | 12.1% [middle of 5 runs] | 12.5% [middle of 5 runs] | 14.5% [middle of 5 runs] | – | – | – | –
14 | COc1cc(OC)cc(N(CCNC(C)C)c2ccc3ncc(-c4cnn(C)c4)nc3c2)c1 | – | – | – | – | – | 73.7% [middle of 5 runs] | – | 71.3% [middle of 5 runs] | – | – | – | 0.42% [middle of 5 runs] | – | – | – | –
15 | COc1cc2nc(C)nc(NC(C)c3cc(N)cc(C(F)(F)F)c3)c2cc1OC1CCOC1 (stereo unspecified) | – | – | – | – | – | – | – | – | – | – | 65.2% [middle of 17 runs] | – | > 10 µM and 8.25 µM and 8.16 µM | > 10 µM | inactive | > 10 µM and 9.5 µM
16 | COc1cc2nccc(Oc3ccc(NC(=O)C4(C(=O)Nc5ccc(F)cc5)CC4)cc3)c2cc1OC | – | – | – | – | – | 95.8% [middle of 5 runs] | – | 94.9% [middle of 5 runs] | 97.2% [middle of 5 runs] | – | – | – | – | – | – | –
17 | Cn1nccc1Nc1nccc(-c2cc3c(s2)C(C)(C)N(CCN2CCOCC2)C3=O)n1 | – | – | – | – | – | 101% [middle of 5 runs] | 5.75 µM [middle of 5 runs] | 96.8% [middle of 5 runs] | 79.2% [middle of 5 runs] | 69.1% [middle of 5 runs] | 57.6% [middle of 5 runs] | 43.9% [middle of 5 runs] | – | – | – | –
18 | Cn1ncnc1[C@H]1c2n[nH]c(=O)c3cc(F)cc(c23)N[C@@H]1c1ccc(F)cc1 | – | 103% [middle of 5 runs] | 99% [middle of 5 runs] | 94.2% [middle of 5 runs] | 81.5% [middle of 5 runs] | 42.4% [middle of 5 runs] | 25.3 nM [middle of 5 runs] | 22.4% [middle of 5 runs] | – | – | – | – | – | – | – | –
19 | O=C(c1cc(Cc2n[nH]c(=O)c3ccccc23)ccc1F)N1CCN(C(=O)C2CC2)CC1 | – | – | – | – | – | 108% [middle of 5 runs] | 2.58 µM [middle of 5 runs] | 99.3% [middle of 5 runs] | 93% [middle of 5 runs] | 81.6% [middle of 5 runs] | 41.5% [middle of 5 runs] | 18.4% [middle of 5 runs] | – | – | – | –
